Each structure is given as a SMILES string. ≈ marks a conversion by molar mass, not a printed value. Peptide text beside a SMILES is read from it. Where only a bound is given, the exact number is not on record here.

Series [1] deals with Bacillus subtilis. Description: Antibacterial activity against Bacillus subtilis. Type of series: functional.
A short description of series [2]: Induction of erythrocyte lysis at 100 uM. The following applies: human, erythrocytes; read-out: Activity. Type of series: cell-based.
Series [3] relates to Escherichia coli. The experiment in a line: Antibacterial activity against Escherichia coli. Type of series: functional.

Take `N=C(N)NCCCCCNC(=O)[C@H](Cc1c[nH]c2ccccc12)NC(=O)c1cc(C(=O)N[C@@H](Cc2c[nH]c3ccccc23)C(=O)NCCCCCNC(=N)N)cc(C(=O)N[C@@H](Cc2c[nH]c3ccccc23)C(=O)NCCCCCNC(=N)N)c1`: the MIC in series [1] was 2 µM (≈ 2.29 µg/mL); in series [3] it was 15.6 µM (≈ 17.9 µg/mL). Further, the hemolysis at 100 µM in series [2] was determined as 22.6%.

For the compound `NCCCCCNC(=O)[C@@H](N)Cc1c[nH]c2ccccc12`, the MIC in series [1] and in series [3] was greater than 250 µM throughout. In addition, the hemolysis at 100 µM in series [2] is less than 1%.

As to `NCCNC(=O)[C@@H](N)Cc1c[nH]c2ccccc12`, the MIC in series [1] and in series [3] was greater than 250 µM each time. Besides, the hemolysis at 100 µM in series [2] was less than 1%.

For `N=C(N)NCCNC(=O)[C@H](Cc1c[nH]c2ccccc12)NC(=O)c1cc(C(=O)N[C@@H](Cc2c[nH]c3ccccc23)C(=O)NCCNC(=N)N)cc(C(=O)N[C@@H](Cc2c[nH]c3ccccc23)C(=O)NCCNC(=N)N)c1`, the minimal inhibitory concentration (MIC) was 3.9 µM (≈ 3.98 µg/mL) in series [1] and greater than 125 µM in series [3]. Besides, the hemolysis at 100 µM in series [2] stood at 5.1%.

`NCCCCCNC(=O)[C@H](Cc1c[nH]c2ccccc12)NC(=O)c1cc(C(=O)N[C@@H](Cc2c[nH]c3ccccc23)C(=O)NCCCCCN)cc(C(=O)N[C@@H](Cc2c[nH]c3ccccc23)C(=O)NCCCCCN)c1`: the minimal inhibitory concentration (MIC) in series [1] was determined as 31.3 µM (≈ 32 µg/mL); in series [3] it was 62.5 µM (≈ 63.8 µg/mL). Also, the hemolysis at 100 µM in series [2] was 0.4%.

For the compound `NCCNC(=O)[C@H](Cc1c[nH]c2ccccc12)NC(=O)c1cc(C(=O)N[C@@H](Cc2c[nH]c3ccccc23)C(=O)NCCN)cc(C(=O)N[C@@H](Cc2c[nH]c3ccccc23)C(=O)NCCN)c1`, the values for the MIC in series [1] and in series [3] were 31.3 µM (≈ 28 µg/mL) and greater than 125 µM, respectively. For the same compound, in series [2], the hemolysis at 100 µM amounted to 1.2%.

As to `O=C(O)c1cc(C(=O)O)cc(C(=O)O)c1`, the MIC in series [1] and in series [3] was greater than 250 µM throughout. Also, in series [2], the hemolysis at 100 µM is less than 1%.

As for `NCCCC[C@@H]1NC(=O)[C@H](CCCCN)NC(=O)[C@H](Cc2ccccc2)NC(=O)[C@H](CCCCN)NC(=O)[C@H](Cc2c[nH]c3ccccc23)NC(=O)[C@H](Cc2c[nH]c3ccccc23)NC1=O` (cyclo(FKKWWK)), the MIC in series [1] and in series [3] was 25 µM (≈ 22.6 µg/mL) throughout. The hemolysis at 100 µM in series [2] came to 10%.

On to `N=C(N)NCCC[C@@H]1NC(=O)[C@H](CCCNC(=N)N)NC(=O)[C@H](Cc2ccccc2)NC(=O)[C@H](CCCNC(=N)N)NC(=O)[C@H](Cc2c[nH]c3ccccc23)NC(=O)[C@H](Cc2c[nH]c3ccccc23)NC1=O` (cyclo(RRWWRF)), for which the minimum inhibitory concentration (MIC) in series [1] amounted to 3.1 µM (≈ 3.06 µg/mL); in series [3] it was 6.3 µM (≈ 6.23 µg/mL). In series [2], the hemolysis at 100 µM turned out to be 24%.

The term MIC denotes the least concentration at which growth counts as inhibited. A low value points to greater potency.
